Laboratory results from patent US8569336B2, “Compounds for the treatment of inflammatory disorders” (priority 2008, dated 2013).
Read-outs that look alike come from different tables or passages of the source.

How the values were obtained:
[1] = test system: TNF-α production from human whole blood; experiment: Inhibition of TNF-α production from human whole blood (hWBA), LPS stimulated, ELISA; assay type: cell-based; settings: Homo sapiens, TNF-α by ELISA, read-out: hWBA (IC50)
[2] = Area under the curve determinations of plasma levels in rats (rrAUC), oral 10 mg/kg; assay type: in vivo; settings: for AUC: rat, read-out: RR AUC (rapid rat AUC, rrAUC)
[3] = target: T1, purified catalytic domain of recombinant human TACE (rhTACEc) (Homo sapiens, UniProt P78536, N452Q/S266A); experiment: TACE kinetic assay: cleavage of internally quenched peptide substrate TNF-FRET 2 (Ki); assay type: biochemical; settings: TNF-FRET 2 substrate
T1 construct: 6xHis (C); made in house; host or cells: baculovirus/Hi5 insect cells

[4] = 3.5 h, human whole blood diluted 1:1, LPS stimulated, 3.5 h
[5] = LPS-stimulated human whole blood
[6] = human whole blood diluted 1:1, LPS stimulated
[7] = plasma, blood collected 0.5-6 h post-dosing
[8] = blood collected 0.5-6 h post-dosing

T1 sequence (P78536 215-477 S266A/N452Q): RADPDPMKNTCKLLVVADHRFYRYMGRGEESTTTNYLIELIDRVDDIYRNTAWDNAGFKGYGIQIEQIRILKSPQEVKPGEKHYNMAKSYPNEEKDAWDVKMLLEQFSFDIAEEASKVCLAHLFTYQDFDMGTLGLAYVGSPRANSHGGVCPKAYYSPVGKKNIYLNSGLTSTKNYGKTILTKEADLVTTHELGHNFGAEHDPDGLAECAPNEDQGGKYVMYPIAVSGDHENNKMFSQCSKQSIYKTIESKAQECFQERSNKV

SMILES	IC50 [1, 4]	AUC ([2]; plasma 0.5-6 h post-dosing)	Ki ([3]; read-out: Ki)	other results
COc1ccc2c(c1)C(=O)N(C[C@@]1(c3cc4ccc(NC(C)=O)nc4o3)NC(=O)NC1=O)C2 [Compound 2249]	178 nM	0.974 µM·h	0.65 nM	
COc1ccc2c(c1)C(=O)N(C[C@@]1(c3cc4cc(-c5csc(N)n5)ccc4o3)NC(=O)NC1=O)C2 [Compound 2220]	722 nM	0.165 µM·h	0.243 nM	
COc1ccc2c(c1F)C(=O)N(C[C@@]1(c3cc4nc(N5CCN(C(C)C)CC5)ccc4o3)NC(=O)NC1=O)C2 [Compound 1706]			0.5 nM	IC50 [1, 5]: 224 nM; AUC ([2]; plasma 0.5-6 h): 0.273 µM·h
COc1ccc2c(c1F)C(=O)N(C[C@@]1(c3cc4nc(C5=CCNCC5)c(F)cc4o3)NC(=O)NC1=O)C2 [Compound 1320]				IC50 [1, 5]: 55 nM; AUC ([2]; plasma 0.5-6 h): 0.101 µM·h; Ki ([3]; Ki): 0.37 nM
COc1ccc2c(c1)C(=O)N(C[C@@]1(c3cc4cc(C5(C)NC(=O)NC5=O)c(F)cc4o3)NC(=O)NC1=O)C2 (stereo partly drawn) [Compound 2200]	217 nM	0.177 µM·h	1.85 nM	
COc1ccc2c(c1)C(=O)N(C[C@@]1(c3cc4cc(C(=O)NCCN(C)C)c(F)cc4o3)NC(=O)NC1=O)C2 [Compound 1273]	181 nM	0.037 µM·h	0.59 nM	
COc1ccc2c(c1)C(=O)N(C[C@@]1(c3cc4ccc(N)nc4o3)NC(=O)NC1=O)C2 [Compound 2250]	218 nM	0.391 µM·h	0.433 nM	
COc1ccc2c(c1)C(=O)N(C[C@@]1(c3cc4nc(C(N)=O)ccc4o3)NC(=O)NC1=O)C2 [Compound 1924]			0.55 nM	IC50 [1, 5]: 200 nM; AUC ([2]; plasma 0.5-6 h): 0.113 µM·h
COC(=O)Nc1ccc2oc([C@]3(CN4Cc5ccc(OC)cc5C4=O)NC(=O)NC3=O)cc2n1 [Compound 2474]			0.52 nM	IC50 [1, 6]: 549 nM; AUC [2, 7]: 15.5 µM·h
COc1ccc2c(c1)C(=O)N(C[C@@]1(c3cc4nc(N5CCN(C(C)=O)CC5)ccc4o3)NC(=O)NC1=O)C2 [Compound 2400]			0.585 nM	IC50 [1, 6]: 280 nM; AUC [2, 7]: 0.439 µM·h
COc1ccc2c(c1)C(=O)N(C[C@@]1(c3cc4nc(-c5ccc(C#N)nc5)ccc4o3)NC(=O)NC1=O)C2 [Compound 1530]			0.7 nM	IC50 [1, 5]: 1610 nM; RR AUC (rapid rat AUC, rrAUC) ([2]; plasma 0.5-6 h): 0.536 µM·h
COc1ccc2c(c1)C(=O)N(C[C@@]1(c3cc4c(-c5ccncc5)nccc4o3)NC(=O)NC1=O)C2 [Compound 2236]	949 nM	0.02 µM·h	0.54 nM	
COc1ccc2c(c1)C(=O)N(C[C@@]1(c3cc4nc(Nc5onc(C)c5C)ccc4o3)NC(=O)NC1=O)C2 [Compound 2132]	3130 nM	0.145 µM·h		Ki ([3]; Ki): 0.593 nM
COc1ccc2c(c1F)C(=O)N(C[C@@]1(c3cc4nc(N5CCN(C6CC6)CC5)ccc4o3)NC(=O)NC1=O)C2 [Compound 1711]			0.5 nM	IC50 [1, 5]: 113 nM; AUC ([2]; plasma 0.5-6 h): 5.09 µM·h
COc1ccc2c(c1)C(=O)N(C[C@@]1(c3cc4nc(N5CCCCC5=O)ccc4o3)NC(=O)NC1=O)C2 [Compound 1512]			1.3 nM	IC50 [1, 5]: 1550 nM; AUC ([2]; plasma 0.5-6 h): 0.303 µM·h
COc1ccc2c(c1)C(=O)N(C[C@@]1(c3cc4nc(Nc5cnccn5)ccc4o3)NC(=O)NC1=O)C2 [Compound 2129]	750 nM	1.33 µM·h	0.395 nM	
CC[C@@H]1CN(c2ccc3oc([C@]4(CN5Cc6ccc(OC)cc6C5=O)NC(=O)NC4=O)cc3n2)CCN1 [Compound 2124]	270 nM	0.014 µM·h	1.09 nM	
COc1ccc2c(c1)C(=O)N(C[C@@]1(c3cc4cc(CNCCN(C)C)ccc4o3)NC(=O)NC1=O)C2 [Compound 2177]	278 nM	0.069 µM·h	0.711 nM	
COc1ccc2c(c1)C(=O)N(C[C@@]1(c3cc4nc(N5CCC5=O)ccc4o3)NC(=O)NC1=O)C2 [Compound 2173]	243 nM	2.54 µM·h	0.955 nM	
COc1ccc2c(c1F)C(=O)N(C[C@@]1(c3cc4ccncc4o3)NC(=O)NC1=O)C2 [Compound 2272]	167 nM	2.79 µM·h	0.3 nM	
COc1ccc2c(c1F)C(=O)N(C[C@@]1(c3cc4nc(-c5ccc(N)nc5)ccc4o3)NC(=O)NC1=O)C2 [Compound 1716]			0.48 nM	IC50 [1, 5]: 132 nM; AUC ([2]; plasma 0.5-6 h): 0.393 µM·h
COc1ccc2c(c1)C(=O)N(C[C@@]1(c3cc4c(C)nc(C)cc4o3)NC(=O)NC1=O)C2 [Compound 2257]	676 nM	4.23 µM·h	0.53 nM	
COc1ccc2c(c1)C(=O)N(C[C@@]1(c3cc4cc(Cl)ncc4o3)NC(=O)NC1=O)C2 [Compound 2300]			0.49 nM	IC50 [1, 6]: 902 nM; AUC [2, 7]: 22.7 µM·h
COc1ccc2c(c1F)C(=O)N(C[C@@]1(c3cc4nc(N5CCN(C)CC5)ccc4o3)NC(=O)NC1=O)C2 [Compound 2125]	144 nM	1.52 µM·h	0.5 nM	

SMILES	IC50 [1, 4]	AUC ([2]; plasma 0.5-6 h post-dosing)	Ki ([3]; read-out: Ki)	other results
COc1ccc2c(c1F)C(=O)N(C[C@@]1(c3cc4nc(N5C[C@H](O)CC5=O)ccc4o3)NC(=O)NC1=O)C2 [Compound 1511]			0.4 nM	IC50 [1, 5]: 93.3 nM; AUC ([2]; plasma 0.5-6 h): 4.01 µM·h
COc1ccc2c(c1F)C(=O)N(C[C@@]1(c3cc4cc(C5(C)NC(=O)NC5=O)c(F)cc4o3)NC(=O)NC1=O)C2 (stereo partly drawn) [Compound 1316]			1.02 nM	IC50 [1, 5]: 104 nM; AUC ([2]; plasma 0.5-6 h): 45.7 µM·h
COc1ccc2c(c1)C(=O)N(C[C@@]1(c3cc4nc(N5CCC[C@H]5CO)ccc4o3)NC(=O)NC1=O)C2 [Compound 1513]			0.7 nM	IC50 [1, 5]: 526 nM; AUC ([2]; plasma 0.5-6 h): 0.524 µM·h
CCN1CCN(c2nc3cc([C@]4(CN5Cc6ccc(OC)c(F)c6C5=O)NC(=O)NC4=O)oc3cc2F)CC1 [Compound 1709]			0.7 nM	IC50 [1, 5]: 131 nM; AUC ([2]; plasma 0.5-6 h): 0.623 µM·h
CNC(=O)Nc1ccc2oc([C@]3(CN4Cc5ccc(OC)cc5C4=O)NC(=O)NC3=O)cc2c1 [Compound 2227]	541 nM	0.057 µM·h	0.478 nM	
COc1ccc2c(c1Cl)C(=O)N(C[C@@]1(c3cc4ncccc4o3)NC(=O)NC1=O)C2 [Compound 2153]	2650 nM	1.76 µM·h	1.1 nM	
CCNC(=O)N1CCc2oc([C@]3(CN4Cc5ccc(OC)cc5C4=O)NC(=O)NC3=O)cc2C1 [Compound 320]			0.4 nM	IC50 [1, 5]: 309 nM; AUC ([2]; plasma 0.5-6 h): 0.011 µM·h
CNS(=O)(=O)c1ccc2oc([C@]3(CN4Cc5ccc(OC)cc5C4=O)NC(=O)NC3=O)cc2c1 [Compound 2481]			0.16 nM	IC50 [1, 6]: 310 nM; AUC [2, 7]: 0.89 µM·h
COc1ccc2c(c1)C(=O)N(C[C@@]1(c3cc4cc(-c5cn[nH]c5)c(F)cc4o3)NC(=O)NC1=O)C2 [Compound 1186]	550 nM	0.285 µM·h	0.56 nM	
COc1ccc2c(c1)C(=O)N(C[C@@]1(c3cc4nc(NS(=O)(=O)C5CC5)ccc4o3)NC(=O)NC1=O)C2 [Compound 2318]			0.579 nM	IC50 [1, 6]: 518 nM; RR AUC (rapid rat AUC, rrAUC) [2, 8]: 0.015 µM·h
COc1ccc2c(c1)C(=O)N(C[C@@]1(c3cc4nc(N)ccc4o3)NC(=O)NC1=O)C2 [Compound 2314]				IC50 [1, 6]: 187 nM; RR AUC (rapid rat AUC, rrAUC) [2, 8]: 0.424 µM·h; Ki ([3]; Ki): 0.511 nM
COc1ccc2c(c1)C(=O)N(C[C@@]1(c3cc4cc(-c5cccnc5)ccc4o3)NC(=O)NC1=O)C2 [Compound 2195]	2120 nM	1.16 µM·h		Ki ([3]; Ki): 0.966 nM
COc1ccc2c(c1F)C(=O)N(C[C@@]1(c3cc4nc(N)ccc4o3)NC(=O)NC1=O)C2 [Compound 1910]			0.34 nM	IC50 [1, 5]: 153 nM; AUC ([2]; plasma 0.5-6 h): 0.351 µM·h
CCc1nccc2oc([C@]3(CN4Cc5ccc(OC)cc5C4=O)NC(=O)NC3=O)cc12 [Compound 2289]			0.25 nM	IC50 [1, 6]: 358 nM; AUC [2, 7]: 3.56 µM·h
COc1ccc2c(c1)C(=O)N(C[C@@]1(c3cc4cc(-c5ccncc5)ncc4o3)NC(=O)NC1=O)C2 [Compound 2238]	628 nM	4.86 µM·h	0.889 nM	
CCNC(=O)Nc1ccc2oc([C@]3(CN4Cc5ccc(OC)cc5C4=O)NC(=O)NC3=O)cc2c1 [Compound 2229]	457 nM	0.158 µM·h		Ki ([3]; Ki): 0.388 nM
COc1ccc2c(c1)C(=O)N(C[C@@]1(c3cc4nc(-c5cnn(C)c5)ccc4o3)NC(=O)NC1=O)C2 [Compound 2104]	285 nM	0.369 µM·h		Ki ([3]; Ki): 0.191 nM
COc1ccc2c(c1)C(=O)N(C[C@@]1(c3cc4nc(-c5cnn(CC(C)C)c5)ccc4o3)NC(=O)NC1=O)C2 [Compound 2115]	968 nM	0.349 µM·h	0.193 nM	
COc1ccc2c(c1)C(=O)N(C[C@@]1(c3cc4cc(-c5cccnc5)cnc4o3)NC(=O)NC1=O)C2 [Compound 2254]	1670 nM	1.77 µM·h	0.599 nM	
COc1ccc2c(c1)C(=O)N(C[C@@]1(c3cc4nc(N5CCN(CCN(C)C)CC5)ccc4o3)NC(=O)NC1=O)C2 [Compound 2142]	463 nM	0.06 µM·h	0.875 nM	
COc1ccc2c(c1)C(=O)N(C[C@@]1(c3cc4nc(N5C[C@H](O)CC5=O)ccc4o3)NC(=O)NC1=O)C2 [Compound 2158]	180 nM	1.19 µM·h	0.545 nM	
COc1ccc2c(c1)C(=O)N(C[C@@]1(c3cc4c(C5=NCCN5)nccc4o3)NC(=O)NC1=O)C2 [Compound 2274]	2240 nM	0.033 µM·h	2 nM	
COc1ccc2c(c1)C(=O)N(C[C@@]1(c3cc4cnc(-c5cn[nH]c5)cc4o3)NC(=O)NC1=O)C2 [Compound 2286]			0.566 nM	IC50 [1, 6]: 184 nM; AUC [2, 7]: 0.046 µM·h
